This is an account of results in patent publication US11472769B2, “SSAO inhibitors and use thereof” (Eccogene (Shanghai) Co., Ltd., priority 2019, dated 2022).

Broadly, the IC50 is the midpoint of a concentration-inhibition curve.

What all share (type): biochemical
The target of one test is recombinant hMAO-B (Homo sapiens (Human), UniProt P27338). Nature of the test: MAO-B activity assay (MAO-Glo assay kit). The settings on record: 4 μM substrate, 30 mins pre-incubation. How it is done:
(§1) The biological activities of the compounds of the present application can be assessed with methods and assays known in the art. For example, the potency of the compounds of the present application can be evaluated with an SSAO Activity Assay. Briefly, compounds of the present application can be applied to recombinant hSSAO, hMAO-A, and hMAO-B isoforms and the amine oxidase activity of the enzymes are measured after the addition and subsequent oxidation of the luminogenic substrate (e.g., with the MAO-Glo assay kit from Promega). The IC50 can be calculated, for example, by fitting the dose response curve using a 4-parameter non-linear regression routine.
(§2) Amine oxidase activity of recombinant hSSAO, hMAO-A, and hMAO-B isoforms are measured using the MAO-Glo assay kit (Promega, V1402). Ten nL test compounds (with DMSO as vehicle, 0.1% v/v for hSSAO, hMAO-A and hMAO-B) were added into assay plates by Echo, and pre-incubated with 5 μL of enzyme for 30 mins at room temperature before the addition of 5 μL of luminogenic substrate. The substrate concentration is 40 μM for human recombinant SSAO, 40 μM for human recombinant MAO-A, and 4 μM for human recombinant MAO-B. The hSSAO and hMAO-A assays were conducted in the MAO-A reaction buffer in the kit, and the MAO-B assay was conducted in the MAO-B reaction buffer. Oxidation of the substrate was conducted for 1 hr, before the addition of detecting reagent according the manufacture's protocol. The IC50 value of the tested compounds was calculated by fitting the dose response curve using a 4-parameter non-linear regression routine.

Another test concerns the target recombinant hMAO-A (Homo sapiens (Human), UniProt P21397). Briefly: MAO-A activity assay (MAO-Glo assay kit). The settings on record: 40 μM substrate, 30 mins pre-incubation. How it is done: as §1, §2
The target in a further test is recombinant hSSAO (Homo sapiens (Human), UniProt Q16853). Nature of the test: SSAO Activity Assay (MAO-Glo assay kit). The settings on record: 40 μM substrate, 30 mins pre-incubation. The essentials:
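Recombinant human enzymes were pre-incubated 30 min at room temperature with compound (0.1% DMSO), then given luminogenic substrate: 40 μM for SSAO and MAO-A (MAO-A buffer), 4 μM for MAO-B (MAO-B buffer).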

Chain of recombinant hMAO-A (P21397 whole entry): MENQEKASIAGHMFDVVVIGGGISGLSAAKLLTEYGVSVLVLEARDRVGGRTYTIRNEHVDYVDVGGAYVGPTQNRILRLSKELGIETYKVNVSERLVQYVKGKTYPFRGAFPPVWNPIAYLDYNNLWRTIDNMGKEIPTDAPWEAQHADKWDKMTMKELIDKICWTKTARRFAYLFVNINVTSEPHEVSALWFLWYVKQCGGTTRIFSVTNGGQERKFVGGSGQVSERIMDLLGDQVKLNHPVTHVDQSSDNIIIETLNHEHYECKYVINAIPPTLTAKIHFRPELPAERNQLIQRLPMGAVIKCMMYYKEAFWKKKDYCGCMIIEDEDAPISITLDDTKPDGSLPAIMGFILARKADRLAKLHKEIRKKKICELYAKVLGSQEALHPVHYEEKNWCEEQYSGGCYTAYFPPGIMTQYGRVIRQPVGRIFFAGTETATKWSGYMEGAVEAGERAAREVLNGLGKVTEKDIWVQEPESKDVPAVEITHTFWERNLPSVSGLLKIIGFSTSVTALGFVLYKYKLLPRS
Chain of recombinant hSSAO (Q16853 whole entry): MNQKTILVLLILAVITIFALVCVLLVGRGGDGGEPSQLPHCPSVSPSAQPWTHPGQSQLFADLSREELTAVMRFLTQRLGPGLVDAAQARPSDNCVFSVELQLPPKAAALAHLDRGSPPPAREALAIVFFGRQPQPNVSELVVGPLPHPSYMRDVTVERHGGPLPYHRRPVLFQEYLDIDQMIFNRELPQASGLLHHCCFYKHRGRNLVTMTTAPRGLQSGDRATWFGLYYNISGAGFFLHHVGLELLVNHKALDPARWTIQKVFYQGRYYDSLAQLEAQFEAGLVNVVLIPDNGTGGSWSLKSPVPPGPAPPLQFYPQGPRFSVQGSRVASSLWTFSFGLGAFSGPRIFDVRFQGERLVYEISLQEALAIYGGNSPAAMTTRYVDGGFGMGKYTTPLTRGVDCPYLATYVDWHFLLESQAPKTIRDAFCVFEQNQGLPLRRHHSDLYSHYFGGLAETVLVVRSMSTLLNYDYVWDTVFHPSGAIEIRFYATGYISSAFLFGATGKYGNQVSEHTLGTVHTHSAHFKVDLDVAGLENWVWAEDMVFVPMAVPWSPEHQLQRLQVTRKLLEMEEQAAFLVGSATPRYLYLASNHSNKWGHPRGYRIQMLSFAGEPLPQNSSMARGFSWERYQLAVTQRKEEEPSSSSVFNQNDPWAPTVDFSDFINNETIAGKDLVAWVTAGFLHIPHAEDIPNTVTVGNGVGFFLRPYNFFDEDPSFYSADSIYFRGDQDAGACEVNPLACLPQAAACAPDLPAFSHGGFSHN
Chain of recombinant hMAO-B (P27338 whole entry, canonical isoform): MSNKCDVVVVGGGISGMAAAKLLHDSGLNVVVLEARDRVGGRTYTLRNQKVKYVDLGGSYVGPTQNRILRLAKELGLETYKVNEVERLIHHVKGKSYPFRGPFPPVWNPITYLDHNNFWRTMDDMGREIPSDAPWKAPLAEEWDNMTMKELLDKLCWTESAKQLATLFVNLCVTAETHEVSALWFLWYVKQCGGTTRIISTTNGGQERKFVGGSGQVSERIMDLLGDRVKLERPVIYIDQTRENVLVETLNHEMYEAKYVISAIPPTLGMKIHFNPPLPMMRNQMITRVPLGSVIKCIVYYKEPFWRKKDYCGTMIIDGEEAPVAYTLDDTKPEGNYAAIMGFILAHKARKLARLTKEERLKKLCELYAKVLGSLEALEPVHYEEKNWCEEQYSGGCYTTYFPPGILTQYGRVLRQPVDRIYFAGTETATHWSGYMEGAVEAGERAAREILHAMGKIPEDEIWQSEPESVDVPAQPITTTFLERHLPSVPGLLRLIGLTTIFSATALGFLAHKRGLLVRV

Regarding `CC1(NC(=O)C23CCC(CS(=O)(=O)c4ccc(OC/C(=C/F)CN)cc4)(CC2)CC3)CC1` [Compound 67, (E)-4-(((4-((2-(aminomethyl)-3-fluoroallyl)oxy)phenyl)sulfonyl)methyl)-N-(1-methylcyclopropyl)bicyclo[2.2.2] octane-1-carboxamide], the IC50 was more than 30 µM at recombinant hMAO-B, more than 30 µM at recombinant hMAO-A and less than 20 nM at recombinant hSSAO.

On to `NC/C(=C\F)COc1ccc(S(=O)(=O)CN2CCOCC2=O)c(F)c1` [Compound 131, (E)-4-(((4-((2-(aminomethyl)-3-fluoroallyl)oxy)-2-fluorophenyl)sulfonyl)methyl) morpholin-3-one], for which the half-inhibitory concentration (IC50) at recombinant hMAO-B is more than 30 µM; at recombinant hMAO-A, more than 30 µM; at recombinant hSSAO it was 20 to 100 nM.

`NC/C(=C\F)COc1ccc(S(=O)(=O)CN2CCCCC2=O)cc1` [Compound 129, (E)-1-(((4-((2-(aminomethyl)-3-fluoroallyl)oxy)phenyl)sulfonyl)methyl)piperidin-2-one]: the IC50 was 10 to 30 µM on recombinant hMAO-B, more than 30 µM at recombinant hMAO-A and 20 to 100 nM at recombinant hSSAO.

As for `NC/C(=C\F)COc1ccc(S(=O)(=O)CC23CCC(NS(=O)(=O)C4CC4)(CC2)CC3)cc1` [Compound 81, (E)-N-(4-(((4-((2-(aminomethyl)-3-fluoroallyl)oxy)phenyl)sulfonyl)methyl)bicyclo[2.2.2]octan-1-yl)cyclopropanesulfonamide], the half-maximal inhibitory concentration (IC50) at recombinant hMAO-B was more than 30 µM; at recombinant hMAO-A it was more than 30 µM; on recombinant hSSAO it was less than 20 nM.

Consider `NC/C(=C\F)COc1ccc(S(=O)(=O)CC23CCC(C(=O)NCC4CC4)(CC2)CC3)cc1` [Compound 66, (E)-4-(((4-((2-(aminomethyl)-3-fluoroallyl)oxy)phenyl)sulfonyl)methyl)-N-(cyclopropylmethyl)bicyclo [2.2.2]octane-1-carboxamide], for which the IC50 on recombinant hMAO-B was 10 to 30 µM; at recombinant hMAO-A, more than 30 µM; at recombinant hSSAO, less than 20 nM.

Take `CC(C)C(=O)NC12CCC(CS(=O)(=O)c3ccc(OC/C(=C/F)CN)cc3)(CC1)CC2` [Compound 80, (E)-N-(4-(((4-((2-(aminomethyl)-3-fluoroallyl)oxy)phenyl)sulfonyl)methyl)bicyclo[2.2.2]octan-1-yl)isobutyramide]: the IC50 at recombinant hMAO-B was 10 to 30 µM; at recombinant hMAO-A, more than 30 µM; on recombinant hSSAO, less than 20 nM.

For `NC/C(=C\F)COc1ccc(S(=O)(=O)CN2CCC3(CCCC3)C2=O)cc1` [Compound 127, (E)-2-(((4-((2-(aminomethyl)-3-fluoroallyl)oxy)phenyl)sulfonyl)methyl)-2-azaspiro[4.4]nonan-1-one], the IC50 on recombinant hMAO-B was less than 10 µM; on recombinant hMAO-A, more than 30 µM; at recombinant hSSAO, 100 to 500 nM.

For the compound `CC(C)(C)C(=O)NC12CCC(CS(=O)(=O)c3ccc(OC/C(=C/F)CN)cc3)(CC1)CC2` [Compound 90, (E)-N-(4-(((4-((2-(aminomethyl)-3-fluoroallyl)oxy)phenyl)sulfonyl)methyl)bicyclo[2.2.2]octan-1-yl)pivalamide], the results for the IC50 on recombinant hMAO-B, at recombinant hMAO-A and at recombinant hSSAO were 10 to 30 µM, more than 30 µM and less than 20 nM, respectively.

Consider `CC1(C)COCC(=O)N1CS(=O)(=O)c1ccc(OC/C(=C/F)CN)cc1` [Compound 132, (E)-4-(((4-((2-(aminomethyl)-3-fluoroallyl)oxy)phenyl)sulfonyl)methyl)-5,5-dimethylmorpholin-3-one], for which the half-maximal inhibitory concentration (IC50) is less than 10 µM at recombinant hMAO-B, more than 30 µM at recombinant hMAO-A and 20 to 100 nM at recombinant hSSAO.

Regarding `CC(C)(C)C(=O)NC12CCC(CS(=O)(=O)c3ccc(OC/C(=C\F)CN)cc3)(CC1)CC2` [Compound 142, (Z)-N-(4-(((4-((2-(aminomethyl)-3-fluoroallyl)oxy)phenyl)sulfonyl)methyl)bicyclo[2.2.2]octan-1-yl)pivalamide], the IC50 at recombinant hMAO-B is more than 30 µM; at recombinant hMAO-A, more than 30 µM; on recombinant hSSAO, less than 20 nM.

As for `NC/C(=C\F)COc1ccc(S(=O)(=O)CN2C(=O)CCc3ccccc32)cc1` [Compound 119, (E)-1-(((4-((2-(aminomethyl)-3-fluoroallyl)oxy)phenyl)sulfonyl)methyl)-3,4-dihydroquinolin-2(1H)-one], the IC50 is more than 30 µM on recombinant hMAO-B, 10 to 30 µM on recombinant hMAO-A and 20 to 100 nM on recombinant hSSAO.

For the compound `NC/C(=C\F)COc1ccc(S(=O)(=O)Cc2cccc(C(=O)N3CCCC3)c2)cc1` [Compound 47, (E)-(3-(((4-((2-(aminomethyl)-3-fluoroallyl)oxy)phenyl)sulfonyl)methyl)phenyl)(pyrrolidin-1-yl)methanone], the IC50 at recombinant hMAO-B was more than 30 µM; on recombinant hMAO-A, more than 30 µM; at recombinant hSSAO, 100 to 500 nM.

Consider `NC/C(=C\F)COc1ccc(S(=O)(=O)CC23CCC(NC(=O)C4(C(F)(F)F)CC4)(CC2)CC3)cc1` [Compound 85, (E)-N-(4-(((4-((2-(aminomethyl)-3-fluoroallyl)oxy)phenyl)sulfonyl)methyl)bicyclo[2.2.2]octan-1-yl)-1-(trifluoromethyl)cyclopropane-1-carboxamide], for which the IC50 was 10 to 30 µM on recombinant hMAO-B, more than 30 µM on recombinant hMAO-A and 20 to 100 nM at recombinant hSSAO.

Take `CC(C)(C)CC(=O)N1CCC(CS(=O)(=O)c2ccc(OC/C(=C/F)CN)cc2)CC1` [Compound 42, (E)-1-(4-(((4-((2-(aminomethyl)-3-fluoroallyl)oxy)phenyl)sulfonyl)methyl)piperidin-1-yl)-3,3-dimethylbutan-1-one]: the figures for the IC50 at recombinant hMAO-B, on recombinant hMAO-A and on recombinant hSSAO were more than 30 µM, more than 30 µM and 20 to 100 nM, respectively.

With `NC/C(=C\F)COc1ccc(S(=O)(=O)CC2CCN(C(=O)C3CCCC3)CC2)c(F)c1` [Compound 58], the IC50 at recombinant hMAO-B is more than 30 µM; on recombinant hMAO-A it was more than 30 µM; on recombinant hSSAO it was 100 to 500 nM.

Consider `CC1(CS(=O)(=O)c2ccc(OC/C(=C/F)CN)cc2)CCN(C(=O)C(C)(C)C)CC1` [Compound 54, (E)-1-(4-(((4-((2-(aminomethyl)-3-fluoroallyl)oxy)phenyl)sulfonyl)methyl)-4-methylpiperidin-1-yl)-2,2-dimethylpropan-1-one], for which the IC50 at recombinant hMAO-B is more than 30 µM; on recombinant hMAO-A it was more than 30 µM; at recombinant hSSAO, 20 to 100 nM.

For `CC(C)OCCNC(=O)C12CCC(CS(=O)(=O)c3ccc(OC/C(=C/F)CN)cc3)(CC1)CC2` [Compound 68, (E)-4-(((4-((2-(aminomethyl)-3-fluoroallyl)oxy)phenyl)sulfonyl)methyl)-N-(2-isopropoxyethyl)bicyclo[2.2.2] octane-1-carboxamide], the values for the IC50 on recombinant hMAO-B, on recombinant hMAO-A and at recombinant hSSAO were more than 30 µM, more than 30 µM and less than 20 nM, respectively.

`CC(CN1CCOCC1)CS(=O)(=O)c1ccc(OC/C(=C/F)CN)cc1F` (stereo not drawn) [Compound 114, (E)-3-fluoro-2-((3-fluoro-4-((2-methyl-3-morpholinopropyl)sulfonyl)phenoxy)methyl)prop-2-en-1-amine]: the half-maximal inhibitory concentration (IC50) was more than 30 µM on recombinant hMAO-B, more than 30 µM at recombinant hMAO-A and 20 to 100 nM on recombinant hSSAO.

Consider `CC1(C)CCC(=O)N1CS(=O)(=O)c1ccc(OC/C(=C/F)CN)cc1` [Compound 123, (E)-1-(((4-((2-(aminomethyl)-3-fluoroallyl)oxy)phenyl)sulfonyl)methyl)-5,5-dimethylpyrrolidin-2-one], for which the IC50 is more than 30 µM at recombinant hMAO-B, more than 30 µM on recombinant hMAO-A and 20 to 100 nM at recombinant hSSAO.
